Assays:
Type in all cases: biochemical
P38 = P38 (Homo sapiens, UniProt Q16539); assay: P38 kinase inhibition
SRC = target: T1, SRC (Homo sapiens, UniProt P12931); assay: Src transphosphorylation assay; details: recombinant human Src, poly(Glu-Tyr) substrate
T1 construct: purchased UBI 14-117
Experimental: Src Transphosphorylation Assay
This assay is used to screen for inhibitors of the tyrosine kinase Src.
1. Coating buffer: PBS containing sodium azide (0.2 mg/ml).
3. Wash buffer: PBS containing 0.05% v/v Tween 20 (PBS-TWEEN)
5. ATP (40 [M)+MgCl2 (80 mM) in distilled water.
6. MgCl2 (80 mM) in distilled water (for no ATP blanks).
7. Test compounds, 10 mM in DMSO.
8. Assay Buffer: 100 mM HEPES, pH 7.4, containing 2 mM DTT, 0.2 mM sodium orthovanadate and 0.2 mgs/ml BSA.
9. Partially purified recombinant human Src (UBI (14-117)
10. Anti-phosphotyrosine (SUGEN rabbit polyclonal anti-PY).
11. HRP-linked goat anti-rabbit Ig (Biosource International #6430)
12. HRP substrate ABTS or Pierce Peroxidase substrate.
13. Corning ELISA plates.
1. Coat plates with 100 μl of 20 μg/ml poly(Glu-Tyr) (Sigma Cat. No.P0275) containing 0.01% sodium azide. Hold overnight at 4° C.
2. Block with 1% BSA at 100 μl/well for one hour at room temperature.
3. Plate test compounds (10 mM in DMSO) at 2 ul/well on a Costar plate ready for dilution with dH2O and plating to reaction plates.
4. Dilute Src kinase 1:10,000 in Reaction Buffer, for 5 plates prepare 25 ml as follows: 2.5 mls 1M HEPES pH7.4 (stored sterile at 4° C.), 21.85 ml distilled water, 0.1 ml 5% BSA, 0.5 ml 10 mM sodium orthovanadate (stored sterile at 4° C.), 50 μl 1.0M DTT (stored frozen at […]), and 2.5 μl Src Kinase (stored frozen at −80° C.).
5. Add 48 μl of distilled water to the 2 ∥l of each compound in the dilution plate then add 25 μl/well of this to the reaction plate.
6. Add 50 μl of […] to each reaction buffer well and then 25 μl ATP-MgCl2/well (MgCl2 only to no ATP blanks). Incubate at room temperature for 15 minutes on plate shaker. Stop reaction by adding 25 μl of 0.5M EDTA to each well.
7. Wash 4× with PBS-TWEEN.
8. […] Incubate with continuous shaking at room temperature for one hour.
9. Wash plates 4× with PBS-TWEEN.
10. Add 100 μl HPP-linked Ig (1:5,000) in PBS-TWEEN containing 0.5% BSA, 0.025% Non-fat milk powder, 100 μM sodium orthovanadate. Incubate with shaking at room temperature for one hour.
11. Wash plates 4× with PBS-TWEEN and then once with PBS.
12. Develop plate using ABTS or other peroxidase substrate.

MET = target: T2, MET (Homo sapiens, UniProt P08581); assay: MET transphosphorylation assay; details: GST fusion protein containing the Met kinase domain, poly(glu-tyr) substrate
T2 construct: Purified GST fusion protein containing the Met kinase domain, SUGEN, Inc
Experimental: MET TRANSPHOSPHORYLATION ASSAY
This assay is used to measure phosphotyrosine levels on a poly(glutamic acid:tyrosine, 4:1) substrate as a means for identifying agonists/antagonists of met transphosphorylation of the substrate.
1. Corning 96-well ELISA plates, Corning Catalog #25805-96.
2. Poly(glu-tyr), 4:1, Sigma, Cat. No; P 0275.
5. Blocking Buffer: Dissolve 25 g Bovine Serum Albumin, Sigma Cat. No A-7888, in 500 ml PBS, filter through a […] filter.
6. Purified GST fusion protein containing the Met kinase domain, SUGEN, Inc.
8. 10% aqueous (MilliQue H2O) DMSO.
9. 10 mM aqueous (dH2O) Adenosine-5′-triphosphate, Sigma Cat. No. A-5394.
10. 2×Kinase Dilution Buffer: for 100 ml, mix 10 mL 1M HEPES at pH 7.5 with 0.4 mL 5% BSA/PBS, 0.2 mL 0.1 M sodium orthovanadate and 1 mL 5M sodium chloride in 88.4 mL dH2O.
11. 4×ATP Reaction Mixture: for 10 mL, mix 0.4 mL 1 M manganese chloride and 0.02 mL 0.1 M ATP in 9.56 mL dH2O.
12. 4×Negative Controls Mixture: for 10 mL, mix 0.4 mL 1 M manganese chloride in 9.6 mL dH2O.
13. NUNC 96-well V bottom polypropylene plates, Applied Scientific Catalog #S-72092
15. Antibody Dilution Buffer: for 100 mL, mix 10 mL 5% BSA/PBS, 0.5 mL 5% Carnation® Instant Milk in PBS and 0.1 mL 0.1 M sodium orthovanadate in 88.4 mL TBST.
16. Rabbit polyclonal antophosphotyrosine antibody, SUGEN, Inc.
17. Goat anti-rabbit horseradish peroxidase conjugated antibody, Biosource, Inc.
18. ABTS Solution: for 1 L, mix 19.21 g citric acid, 35.49 g Na2HPO4 and 500 mg ABTS with sufficient dH2O to make 1 L.
19. ABTS/H2O2: mix 15 mL ABST solution with 2μL H2O2 five minutes before use.
1. Coat ELISA plates with 2 μg Poly(Glu-Tyr) in 100 μL PBS, hold overnight at 4° C.
2. Block plate with 150 μL of 5% BSA/PBS for 60 min.
3. Wash plate twice with PBS then once with 50 mM Hepes buffer pH 7.4.
4. Add 50 μl of the diluted kinase to all wells. (Purified kinase is diluted with Kinase Dilution Buffer. Final concentration should be 10 ng/well.)
5. Add 25 μL of the test compound (in 4% DMSO) or DMSO alone (4% in dH2O) for controls to plate.
6. Incubate the kinase/compound mixture for 15 minutes.
7. Add 25 μL of 40 mM MnCl2 to the negative control wells.
8. Add 25 μL ATP/MnCl2 mixture to the all other wells (except the negative controls). Incubate for 5 min.
9. Add 25 μL 500 mM EDTA to stop reaction.
10. Wash plate 3× with TBST.
11. Add 100 μL rabbit polyclonal anti-Ptyr diluted 1:10,000 in Antibody Dilution Buffer to each well. Incubate, with shaking, at room temperature for one hour.
12. Wash plate 3× with TBST.
13. Dilute Biosource HRP conjugated anti-rabbit antibody 1:6,000 in Antibody Dilution buffer. Add 100 μL per well and incubate at room temperature, with shaking, for one hour.
14. Wash plate 1× with PBS.
15. Add 100 μl of ABTS/H2O2 solution to each well.
16. If necessary, stop the development reaction with the addition of 100 μl of 0.2M HCl per well.
17. Read plate on Dynatech MR7000 ELISA reader with the test filter at 410 nM and the reference filter at 630 nM.

T1 sequence (P12931 whole entry): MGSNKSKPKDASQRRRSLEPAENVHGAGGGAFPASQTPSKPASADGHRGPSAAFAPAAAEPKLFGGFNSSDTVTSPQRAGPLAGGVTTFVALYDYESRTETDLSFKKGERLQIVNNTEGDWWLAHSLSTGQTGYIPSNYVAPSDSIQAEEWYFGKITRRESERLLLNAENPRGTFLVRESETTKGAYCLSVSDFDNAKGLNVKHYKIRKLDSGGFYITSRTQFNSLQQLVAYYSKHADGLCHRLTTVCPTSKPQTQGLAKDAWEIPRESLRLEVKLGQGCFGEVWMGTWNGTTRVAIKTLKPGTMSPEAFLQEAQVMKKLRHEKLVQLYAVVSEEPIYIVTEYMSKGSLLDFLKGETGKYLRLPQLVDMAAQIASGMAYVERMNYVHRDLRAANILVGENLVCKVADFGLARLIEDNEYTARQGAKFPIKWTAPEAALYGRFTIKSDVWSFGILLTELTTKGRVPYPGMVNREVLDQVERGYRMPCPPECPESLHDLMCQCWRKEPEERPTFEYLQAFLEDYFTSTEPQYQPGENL
Sequence of P38 (Q16539 whole entry): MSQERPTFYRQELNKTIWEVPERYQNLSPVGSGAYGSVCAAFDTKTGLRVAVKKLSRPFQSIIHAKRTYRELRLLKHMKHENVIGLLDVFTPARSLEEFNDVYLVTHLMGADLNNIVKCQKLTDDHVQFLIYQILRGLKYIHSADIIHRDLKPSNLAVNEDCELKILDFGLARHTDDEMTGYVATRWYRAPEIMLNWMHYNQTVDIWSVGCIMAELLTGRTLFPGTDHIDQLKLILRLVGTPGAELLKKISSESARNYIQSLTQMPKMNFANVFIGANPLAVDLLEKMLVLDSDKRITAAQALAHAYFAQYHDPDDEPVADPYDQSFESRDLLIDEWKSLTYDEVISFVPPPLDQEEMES
T2 sequence (P08581 1078-1345 limits assumed): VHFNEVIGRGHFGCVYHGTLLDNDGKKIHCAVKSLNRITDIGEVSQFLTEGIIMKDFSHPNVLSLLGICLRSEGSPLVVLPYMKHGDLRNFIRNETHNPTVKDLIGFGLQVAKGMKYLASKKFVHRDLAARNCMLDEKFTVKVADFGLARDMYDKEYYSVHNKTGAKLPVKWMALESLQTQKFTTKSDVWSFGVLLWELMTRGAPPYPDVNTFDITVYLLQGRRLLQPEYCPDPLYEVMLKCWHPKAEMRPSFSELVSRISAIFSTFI

CCOC(=O)c1c(C)[nH]c(/C=C2\C(=O)Nc3cccc(-c4cccc(F)c4)c32)c1CCCN1CCN(C)CC1 [Example 18, 5-[4-(3-Fluoro-phenyl)-2-oxo-1,2-dihydro-indol-3-ylidenemethyl]-2-methyl-4-[3-(4-methyl-piperazin-1-yl)-propyl]-1H-pyrrole-3-carboxylic Acid Ethyl Ester]
IC50 (P38): 9500 nM
IC50 (SRC): 7810 nM
IC50 (MET): 270 nM

CCN(CC)CCNC(=O)c1c(C)[nH]c(/C=C2\C(=O)Nc3cccc(-c4ccccc4)c32)c1C [Example 3, 2,4-Dimethyl-5-(2-oxo-4-phenyl-1,2-dihydro-indol-3-ylidenemethyl)-1H-pyrrole-3-carboxylic Acid (2-Diethylamino-ethyl)-amide]
IC50 (P38): > 10000 nM
IC50 (SRC): 1020 nM
IC50 (MET): 78 nM

COc1ccc(-c2cccc3c2/C(=C/c2[nH]c(C)c(C(=O)N4C[C@@H](C)N[C@@H](C)C4)c2C)C(=O)N3)cc1 [Example 40, 3-[4-((cis)-3,5-Dimethyl-piperazine-1-carbonyl)-3,5-dimethyl-1H-pyrrol-2-ylmethylene]-4-(4-methoxy-phenyl)-1,3-dihydro-indol-2-one]
IC50 (P38): > 10000 nM
IC50 (SRC): 6570 nM
IC50 (MET): 270 nM

CCN(CC)CCNC(=O)c1c(C)[nH]c(/C=C2\C(=O)Nc3cccc(-c4cccc(Cl)c4)c32)c1C [Example 29, 5-[4-(3-Chloro-phenyl)-2-oxo-1,2-dihydro-indol-3-ylidenemethyl]-2,4-dimethyl-1H-pyrrole-3-carboxylic Acid (2-Diethylamino-ethyl)-amide]
IC50 (P38): > 10000 nM
IC50 (SRC): 1250 nM
IC50 (MET): 65 nM

Cc1[nH]c(/C=C2\C(=O)Nc3cccc(-c4ccc(F)cc4)c32)c(C)c1C(=O)NCCN1CCCC1 [Example 6, 5-[4-(4-Fluoro-phenyl)-2-oxo-1,2-dihydro-indol-3-ylidenemethyl]-2,4-dimethyl-1H-pyrrole-3-carboxylic Acid (2-Pyrrolidin-1-yl-ethyl)-amide]
IC50 (P38): > 10000 nM
IC50 (SRC): 4930 nM
IC50 (MET): 73 nM

Cc1[nH]c(/C=C2\C(=O)Nc3cccc(-c4ccc(Br)cc4)c32)c(C)c1C(=O)N1C[C@@H](C)N[C@@H](C)C1 [Example 57, 4-(4-Bromo-phenyl)-3-[4-[(cis)-3,5-dimethyl-piperazine-1-carbonyl)-3,5-dimethyl-1H-pyrrol-2-ylmethylene]-1,3-dihydro-indol-2-one]
IC50 (P38): > 10000 nM
IC50 (SRC): 4740 nM
IC50 (MET): 420 nM

Cc1cc(C(=O)NCCN2CCCC2)c(/C=C2\C(=O)Nc3cccc(-c4ccc(Br)cc4)c32)[nH]1 [Example 58, 2-[4-(4-Bromo-phenyl)-2-oxo-1,2-dihydro-indol-3-ylidenemethyl]-5-methyl-1H-pyrrole-3-carboxylic Acid (2-Pyrrolidin-1-yl-ethyl)-amide]
IC50 (P38): > 10000 nM
IC50 (SRC): 4810 nM
IC50 (MET): 73 nM

COc1cccc(-c2cccc3c2/C(=C/c2[nH]c(C)c(C(=O)NCCn4ccnn4)c2C)C(=O)N3)c1 [Example 48, 5-[4-(3-Methoxy-phenyl)-2-oxo-1,2-dihydro-indol-3-ylidenemethyl]-2,4-dimethyl-1H-pyrrole-3-carboxylic Acid (2-[1,2,3]Triazol-1-yl-ethyl)-amide]
IC50 (P38): > 10000 nM
IC50 (SRC): 3800 nM
IC50 (MET): 1060 nM

Cc1cc(C(=O)N2CC[C@H](N(C)C)C2)c(/C=C2\C(=O)Nc3cccc(-c4ccc(F)cc4)c32)[nH]1 [Example 10, 3-[3-((S)-3-Dimethylamino-pyrrolidine-1-carbonyl)-5-methyl-1H-pyrrol-2-ylmethylene]-4-(4-fluoro-phenyl)-1,3-dihydro-indol-2-one]
IC50 (P38): > 10000 nM
IC50 (SRC): 1820 nM
IC50 (MET): 230 nM

Cc1cc(C(=O)N2C[C@@H](C)N[C@@H](C)C2)c(/C=C2\C(=O)Nc3cccc(-c4cccc(Cl)c4)c32)[nH]1 [Example 35, 4-(3-Chloro-phenyl)-3-[3-((cis)-3,5-dimethyl-piperazine-1-carbonyl)-5-methyl-1H-pyrrol-2-ylmethylene]-1,3-dihydro-indol-2-one]
IC50 (P38): > 10000 nM
IC50 (SRC): 9720 nM
IC50 (MET): 340 nM

Cc1cc(C(=O)N2C[C@@H](C)N[C@@H](C)C2)c(/C=C2\C(=O)Nc3cccc(-c4ccc(Cl)cc4)c32)[nH]1 [Example 27]
IC50 (P38): > 10000 nM
IC50 (SRC): 13900 nM
IC50 (MET): 150 nM

Cc1cc(C(=O)N2CC[C@H](N(C)C)C2)c(/C=C2\C(=O)Nc3cccc(-c4cccc(Cl)c4)c32)[nH]1 [Example 32, 4-(3-Chloro-phenyl)-3-[3-((S)-3-dimethylamino-pyrrolidine-1-carbonyl)-5-methyl-1H-pyrrol-2-ylmethylene]-1,3-dihydro-indol-2-one]
IC50 (P38): > 10000 nM
IC50 (SRC): 5370 nM
IC50 (MET): 120 nM

CCN(CC)CCNC(=O)c1c(C)[nH]c(/C=C2\C(=O)Nc3cccc(-c4cccc(F)c4)c32)c1C [Example 13, 5-[4-(3-Fluoro-phenyl)-2-oxo-1,2-dihydro-indol-3-ylidenemethyl]-2,4-dimethyl-1H-pyrrole-3-carboxylic Acid (2-Diethylamino-ethyl)-amide]
IC50 (P38): > 10000 nM
IC50 (SRC): 1050 nM
IC50 (MET): 100 nM

Cc1cc(C(=O)N2CC[C@@H](N(C)C)C2)c(/C=C2\C(=O)Nc3cccc(-c4ccc(Cl)cc4)c32)[nH]1 [Example 25, 4-(4-Chloro-phenyl)-3-[3-((R)-3-dimethylamino-pyrrolidine-1-carbonyl)-5-methyl-1H-pyrrol-2-ylmethylene]-1,3-dihydro-indol-2-one]
IC50 (P38): > 10000 nM
IC50 (SRC): 9860 nM
IC50 (MET): 110 nM

From US6677368B2, “4-aryl substituted indolinones” (Sugen, Inc., priority 2000, dated 2004)
